Earlier results in patent US20210347751A1, “METHOD FOR EFFICIENT EXTRACTION OF PLANT ANTHOCYANIDIN” (priority 2018, published 2021).
Read-outs that look alike come from different tables or passages of the source. One block for each compound: values may come before it.

Assays:
[1] = in vivo

Compound: [Cl-].[K+] [potassium chloride]
Water solubility (10° C.): 31.2 gram/100 g of water
Water solubility (20° C.): 34.2 gram/100 g of water
Water solubility (30° C.): 37.2 gram/100 g of water
Water solubility (40° C.): 40.1 gram/100 g of water
Water solubility (60° C.): 45.8 gram/100 g of water
Water solubility (70° C.): 48.8 gram/100 g of water
Water solubility (80° C.): 51.3 gram/100 g of water
Water solubility (90° C.): 53.9 gram/100 g of water
Water solubility (100° C.): 56.3 gram/100 g of water

bioavailability in the human body [1]: almost zero
Compound: Anthocyanins
